Data taken from patent publication US10287334B2, “Non-narcotic CRMP2 peptides targeting sodium channels for chronic pain” (priority 2014, dated 2019).
“Also recorded” adds a separate entry of the source. Like-named read-outs stand apart in the source and are kept apart here.

Columns and labels:
[1] = system: rat spared nerve injury (SNI) model; format: in vivo
[2] = system: rat spared nerve injury (SNI) model; format: in vivo; remark: listed apart in the source
naïve male SD rats = conditions: tat-CSM-1S by spinal delivery, over a 24 hour period
[3] = system: rat dorsal root ganglion (DRG) neurons; experiment: Ouabain-induced increase in cytosolic Na+ (SBFI imaging) in DRG neurons; format: cell-based
[4] = SNI rats, dose not given, p<0.05 vs BL-Post SNI

NCC1(CC(=O)O)CCCCC1 [gabapentin]
antihyperalgesic effect in SNI (reference drugs) [1, 4]: Antihyperalgesic effects | antiallodynic effect in SNI (reference drugs) [2, 4]: Antiallodynic effects | motor impairment / sedation on the rotarod (naïve male SD rats): decrease in the ability of naïve rats to remain on the rotating rod | motor impairment / sedation on the rotarod (naïve male SD rats; listed as Gabapentin): significant sedation/motor impairment

CN1CC[C@]23c4c5ccc(O)c4O[C@H]2[C@@H](O)C=C[C@H]3[C@H]1C5 [morphine]
antihyperalgesic effect in SNI (reference drugs) ([1]; rat, in vivo): Antihyperalgesic effects | antiallodynic effect in SNI (reference drugs) ([2]; rat, in vivo): Antiallodynic effects

NC1=N[C@H](O)[C@H]2[C@H]3O[C@]4(O)O[C@@H]([C@@H](O)[C@@]2(N1)[C@@H]4O)[C@]3(O)CO [tetrodotoxin]
ouabain-induced increase in [Na+]c [3]: inhibited; also recorded: attenuate

Protox-II: a spider toxin that preferentially blocks NaV1.7 (YCQKWMWTCDSERKCCEGMVCRLWCKKKLW)
ouabain-induced increase in [Na+]c ([3]; 10 μM Protox-II, 1 mM ouabain): inhibited; also recorded: attenuate
